ChEMBL document CHEMBL1145756, “Structure-activity relationships of indole cytosolic phospholipase A(2)alpha inhibitors: substrate mimetics” (Bioorg Med Chem Lett, 2003)

Key:
[1] = Oral bioavailability in rat (dose 10 mg/kg); assay type: ADME, organism-based; settings: in vivo
[2] = molecular target: T1, Cytosolic phospholipase A2 (Homo sapiens, UniProt P47712); assay: Inhibitory concentration against cystolic phospholipase A2 alpha receptor (c-PLA2 alpha) using coumarin assay
T1 sequence (P47712 whole entry): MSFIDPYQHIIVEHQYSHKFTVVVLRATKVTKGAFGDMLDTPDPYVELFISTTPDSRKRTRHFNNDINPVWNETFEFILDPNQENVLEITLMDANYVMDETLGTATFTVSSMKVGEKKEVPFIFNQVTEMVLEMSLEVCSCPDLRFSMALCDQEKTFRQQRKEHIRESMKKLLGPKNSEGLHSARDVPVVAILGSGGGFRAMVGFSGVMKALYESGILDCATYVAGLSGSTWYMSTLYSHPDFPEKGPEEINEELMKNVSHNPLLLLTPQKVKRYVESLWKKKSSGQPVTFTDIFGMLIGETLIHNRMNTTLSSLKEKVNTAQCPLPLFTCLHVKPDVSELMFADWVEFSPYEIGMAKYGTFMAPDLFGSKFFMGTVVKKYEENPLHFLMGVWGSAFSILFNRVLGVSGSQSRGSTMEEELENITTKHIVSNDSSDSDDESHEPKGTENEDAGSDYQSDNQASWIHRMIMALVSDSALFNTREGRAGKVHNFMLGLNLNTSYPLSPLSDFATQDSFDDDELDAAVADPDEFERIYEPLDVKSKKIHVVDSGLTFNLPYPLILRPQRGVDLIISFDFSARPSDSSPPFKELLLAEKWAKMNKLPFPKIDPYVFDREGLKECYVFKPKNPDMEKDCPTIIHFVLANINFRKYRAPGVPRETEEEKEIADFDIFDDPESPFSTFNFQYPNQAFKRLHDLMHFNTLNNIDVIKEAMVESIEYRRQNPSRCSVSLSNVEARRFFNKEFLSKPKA

[3] = organism: Homo sapiens; assay: Inhibitory concentration against arachidonic acid release determined in human neutrophils PMN assay; assay type: functional
[4] = molecular target: T1, Cytosolic phospholipase A2; assay: In vitro inhibition of cystolic phospholipase A2 alpha.

SMILES | bioavailability [1] | IC50 [2] | IC50 [3] | IC50 [4]
COc1cc(C(=O)O)ccc1Cc1cn(C(c2ccccc2)c2ccccc2)c2ccc(Cl)cc12 | 22% | 400 nM | 1800 nM | 
COc1cc(C(=O)O)ccc1Cc1cn(C(c2ccccc2)c2ccccc2)c2ccc(F)cc12 |  |  |  | 1000 nM
COc1cc(C(=O)NS(=O)(=O)c2ccccc2C)ccc1Cc1cn(CC2CC2)c2ccc(NC(=O)OC3CCCC3)cc12 |  |  |  | 20000 nM
COc1cc(C(=O)O)ccc1Cc1cn(C(c2ccccc2)c2ccccc2)c2ccc([N+](=O)[O-])cc12 |  | 400 nM | 1800 nM | 
COc1cc(C(=O)O)ccc1Cc1cn(C(c2ccccc2)c2ccccc2)c2cccc(Cl)c12 |  |  |  | 4500 nM
COc1cc(C(=O)NS(=O)(=O)c2ccccc2C)ccc1Cc1cn(C)c2ccc(NC(=O)OC3CCCC3)cc12 [ZAFIRLUKAST] |  |  |  | 85000 nM
COc1cc(C(=O)O)ccc1Cc1cn(C(c2ccccc2)c2ccccc2)c2ccc(S(C)(=O)=O)cc12 |  |  |  | 2000 nM
COc1cc(C(=O)O)ccc1Cc1cn(C(c2ccccc2)c2ccccc2)c2ccc(C#N)cc12 | 19% | 800 nM | 1300 nM | 
COc1cc(C(=O)NS(=O)(=O)c2ccccc2C)ccc1Cc1cn(Cc2ccncc2)c2ccc(NC(=O)OC3CCCC3)cc12 |  |  |  | 38000 nM
COc1cc(C(=O)O)ccc1Cc1cn(C(c2ccccc2)c2ccccc2)c2ccc(N(C)C)cc12 |  |  |  | 24000 nM
COc1cc(C(=O)O)ccc1Cc1cn(C(c2ccccc2)c2ccccc2)c2ccc(N)cc12 |  |  |  | 41000 nM
COc1cc(C(=O)O)ccc1Cc1cn(C(c2ccccc2)c2ccccc2)c2ccc(NS(C)(=O)=O)cc12 |  |  |  | 20000 nM
COc1cc(C(=O)O)ccc1Cc1cn(C(c2ccccc2)c2ccccc2)c2ccc(NC(=O)OC3CCCC3)cc12 |  |  |  | 5000 nM
COc1cc(C(=O)O)ccc1Cc1cn(C(c2ccccc2)c2ccccc2)c2c(Cl)cccc12 |  |  |  | 2100 nM
COc1cc(C(=O)O)ccc1Cc1cn(C(c2ccccc2)c2ccccc2)c2ccccc12 |  |  |  | 3600 nM
CCCCNC(=O)Nc1ccc2c(c1)c(Cc1ccc(C(=O)O)cc1OC)cn2C(c1ccccc1)c1ccccc1 |  |  |  | 15000 nM
COc1ccc2c(c1)c(Cc1ccc(C(=O)O)cc1OC)cn2C(c1ccccc1)c1ccccc1 |  |  |  | 1900 nM
COc1cc(C(=O)O)ccc1Cc1cn(C(c2ccccc2)c2ccccc2)c2ccc(Br)cc12 | 16% | 600 nM | 1200 nM | 
COc1cc(C(=O)NS(=O)(=O)c2ccccc2C)ccc1Cc1cn(C(c2ccccc2)c2ccccc2)c2ccc(NC(=O)OC3CCCC3)cc12 |  |  |  | 6000 nM
COc1cc(C(=O)O)ccc1Cc1cn(C(c2ccccc2)c2ccccc2)c2cc(Cl)ccc12 | 63% |  |  | 800 nM
COc1cc(C(=O)NS(=O)(=O)c2ccccc2C)ccc1Cc1cn(C2CCCC2)c2ccc(NC(=O)OC3CCCC3)cc12 |  |  |  | 17000 nM
COc1cc(C(=O)O)ccc1Cc1cn(C(c2ccccc2)c2ccccc2)c2ccc(C)cc12 | 38% | 900 nM |  | 
